Results: patent publication US9365597B2, “Mitochondria-targeted inhibitors of cytochrome c peroxidase for protection from apoptosis” (Brock University, priority 2011, dated 2016)
Entries after “also recorded” stand apart in the source; their conditions may differ. Read-outs that look alike come from different tables or passages of the source.

What was measured:
cyt c/TOCL complexes [1] = biological target: T1, cyt c/TOCL complexes (Equus caballus, UniProt P00004); test: Peroxidase activity of cyt c/TOCL complexes, H2O2-induced oxidation of Amplex Red to resorufin; assay type: biochemical; details: for inhibition of cyt c peroxidase compared with TPP-ISA: ratio of compound to cyt c of 2.5:1, TOCL:cyt c 25:1; for inhibition of peroxidase activity of cyt c/TOCL complexes (Amplex Red oxidation): cyt c 1 μM, CL/cyt c 25:1, 50 μM Amplex Red, 50 μM H2O2, 20 min
T1 construct: purchased Sigma (St. Louis, Mo.)
T1 sequence (P00004 2-105 limits assumed, one chain of several): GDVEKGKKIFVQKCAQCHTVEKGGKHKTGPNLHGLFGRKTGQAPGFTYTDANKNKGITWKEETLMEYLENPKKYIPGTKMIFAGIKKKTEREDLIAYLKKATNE
Description: Conditions: cyt c (1 μM), H2O2 (50 μM), Amplex Red (50 μM). Experiments were performed in 20 mM HEPES buffer (pH 7.4) containing DTPA (100 μM), cyt c was incubated with DOPC/TOCL liposomes (1:1) at a ratio of TOCL:cyt c of 25:1.
(§1) Peroxidase activity of cyt c was assessed by oxidation of Amplex Red, etoposide or TLCL (tetra-linoleoyl-cardiolipin). Measurements of Amplex Red oxidation were performed using fluorescence of its oxidation product resorufin. Cyt c (1 μM) was incubated with tetra-oleoyl-cardiolipin (TOCL) containing liposomes (CL/cyt c ratio 25:1). Then 50 μM Amplex Red and 50 μM H2O2 were added, and the incubation proceeded for an additional 20 min. Fluorescence was detected by employing a “Fusion α” universal microplate analyzer and by using an excitation wavelength of 535 nm and an emission wavelength of 590 nm. EPR spectra of etoposide phenoxyl radicals were recorded at 25° C. in gas permeable Teflon tubings (inner diameter, 0.8 mm; thickness, 0.013; Alpha Wire Corp., Elizabeth, N.J.). Volume of samples was 60 μL. The spectra were recorded under the following conditions: 335.3 mT, center field; 2 mT, sweep width; 0.04 mT, field modulation; 10 mW, microwave power; 0.1 s, time constant; 2 min, time scan. The time course of the etoposide radical EPR signal was obtained by repeated scanning of the field (0.15 mT, sweep width; 335.3 mT, center field) corresponding to a part of the EPR signal. Peroxidase activity of mitochondria was determined by the formation of resorufin from Amplex Red. Isolated mouse liver mitochondria (0.6 mg/ml) were incubated in the presence of 100 μM Amplex Red and 2 mM tert-butyl hydroperoxide (tBOOH). After incubation at room temperature for 20 min, fluorescence of resurufin was measured.
Small unilamellar liposomes were prepared from dioleoylphosphatidylcholine (DOPC) and TOCL (1:1 ratio) or DOPC and TLCL (4:1 ratio) by sonication in HEPES buffer (20 mM with 100 μM diethylene triamine pentaacetic acid (DTPA) (pH 7.4) 3×60 sec, relaxation time 2 min, 4° C.).
(§2) Peroxidase activity of cyt c was assessed by oxidation of Amplex Red, etoposide or TLCL as described above.

cyt c/TOCL complexes [2] = biological target: T1, cyt c/TOCL complexes; test: Peroxidase activity of cyt c/TOCL complexes, H2O2-induced oxidation of etoposide (EPR of phenoxyl radicals); assay type: biochemical; details: H2O2-driven oxidation of etoposide
Description: as §1, §2

cyt c/TOCL complexes [3] = biological target: T1, cyt c/TOCL complexes; test: Low-temperature (77 K) EPR of protein-immobilized (tyrosyl) radicals of cyt c/TOCL with H2O2; assay type: biochemical; details: cyt c 100 μM, H2O2 500 μM, EPR at 77 K
Description: EPR spectra of protein-immobilized (tyrosyl) radicals were recorded after the addition of H2O2 (500 μM) to cyt c (100 μM) incubated with tetra-oleoyl-cardiolipin (TOOL) liposomes at room temperature. After incubation for 20 s, the reaction was stopped by freezing the samples in liquid nitrogen. EPR spectra were obtained on a JEOL-REIX spectrometer with 100 kHz modulation (JEOL, Kyoto, Japan). EPR spectra from frozen samples were recorded at 77 K under the following conditions: center field, 3230 G; sweep width, 100 G; field modulation, 5 G; microwave power, 1 mW; receiver gain, 10^3; time constant, 0.1 s; time scan, 4 min.

mouse liver mitochondria = test: Peroxidase activity of isolated mouse liver mitochondria (Amplex Red, tBOOH); assay type: biochemical; details: 0.6 mg/ml mitochondria, 100 μM Amplex Red, 2 mM tBOOH, 20 min
Description: Peroxidase activity of cyt c was assessed by oxidation of Amplex Red, etoposide or TLCL (tetra-linoleoyl-cardiolipin). Measurements of Amplex Red oxidation were performed using fluorescence of its oxidation product resorufin. Cyt c (1 μM) was incubated with tetra-oleoyl-cardiolipin (TOCL) containing liposomes (CL/cyt c ratio 25:1). Then 50 μM Amplex Red and 50 μM H2O2 were added, and the incubation proceeded for an additional 20 min. Fluorescence was detected by employing a “Fusion α” universal microplate analyzer and by using an excitation wavelength of 535 nm and an emission wavelength of 590 nm. EPR spectra of etoposide phenoxyl radicals were recorded at 25° C. in gas permeable Teflon tubings (inner diameter, 0.8 mm; thickness, 0.013; Alpha Wire Corp., Elizabeth, N.J.). Volume of samples was 60 μL. The spectra were recorded under the following conditions: 335.3 mT, center field; 2 mT, sweep width; 0.04 mT, field modulation; 10 mW, microwave power; 0.1 s, time constant; 2 min, time scan. […] Peroxidase activity of mitochondria was determined by the formation of resorufin from Amplex Red. […] After incubation at room temperature for 20 min, fluorescence of resurufin was measured.
Finally, the ability of ISA and IEOA to inhibit peroxidase activity using isolated mouse liver mitochondria was assessed. […]

cyt c/TOCL complexes [4] = biological target: T1, cyt c/TOCL complexes; test: Haem-nitrosylation of cyt c/TOCL by nitroxyl from Angeli's salt, EPR at 77 K; assay type: biochemical; details: Angeli's salt 500 μM, 30 min
Description: Heme nitrosylation: Cyt c (100 μM) was incubated with a nitroxyl donor, Angeli's salt (500 μM), for 30 min at room temperature. The reaction was stopped by freezing the samples in liquid nitrogen. The EPR spectra of heme-nitrosylated cyt c were measured at 77 K under the following instrumental settings: center field, 3200 G; scan range, 500 G; field modulation, 5 G; microwave power, 10 mW; time constant, 0.1 s; scan time, 4 min; receiver gain, 10^3.

mouse embryonic cells = test: Actinomycin D-induced cell death in mouse embryonic cells (Annexin V/PI); assay type: cell-based; details: 1 to 100 μM (BSA complexes), 100 ng ml^−1 ActD, 18 h
Description: IEOA or ISA were incubated in the presence of fatty acid-free bovine serum albumin (BSA) (Sigma) at a molar ratio of 5:1 at 37° C. for 30 min. Mouse embryonic cells were incubated with IEOA/BSA or ISA/BSA (100 μM) complexes for 30 min before the addition of 100 ng ml^−1 actinomycin D (ActD). After 18-h incubation with ActD, cell viability was analysed by flow cytometry using an Annexin V/PI kit. ActD-induced cell death in ˜34.2% of cells. […] Representative data with 100 μM IEOA/BSA and ISA/BSA complexes are shown. Data are means±s.d., n=3.

native ferri-cyt c = biological target: T2, native ferri-cyt c (Equus caballus, UniProt P00004); test: Liquid-He (20 K) X-band EPR of haem-iron ligation, native cyt c; assay type: binding; details: pH 7.4, 20 K, no TOCL
T2 construct: purchased Sigma (St. Louis, Mo.)
T2 sequence (P00004 2-105 limits assumed): as the sequence (P00004 2-105 limits assumed, one chain of several) above
Description: (§3) Conditions: native cyt c (300 μM), IEOA/cyt c (2:1), TOCL/IEOA/cyt c (20:2:1), 20 mM HEPES buffer, pH 7.4. Samples (200 μl) were placed in 3 mm o.d. suprasil quartz EPR tubes and frozen in liquid nitrogen for subsequent spectroscopic measurements. X-band (9 GHz) EPR spectra were recorded on a Bruker ESP 300 spectrometer equipped with an Oxford Instruments ESR 910 flow cryostat for ultra-low-temperature measurements. Spectra were recorded at 9.8 G modulation amplitude and 200 μW microwave power. The microwave frequency was calibrated by a frequency counter and the magnetic field was calibrated with a gaussmeter. The temperature was calibrated with carbon-glass resistors (CGR-1-1000) from LakeShore. This instrument and the software (SpinCount) to analyse the EPR spectra were provided by Professor Mike Hendrich, Carnegie Mellon University.

cyt c/TOCL complex = biological target: T3, cyt c/TOCL complex (Equus caballus, UniProt P00004); test: Liquid-He (20 K) X-band EPR of haem-iron ligation, cyt c/TOCL complex; assay type: binding
T3 construct: purchased Sigma (St. Louis, Mo.)
T3 sequence (P00004 2-105 limits assumed, one chain of several): as above
Description: as §3

[5] = TPP-IOA levels in plasma, small intestine and bone marrow after i.p. injection (LC-MS/MS, SRM); assay type: in vivo; details: C57BL/6NTac, mouse, ip, 10 min after i.p. injection, 5 mg/kg body weight
Description: TPP-IOA and its hydrolysis products were extracted from plasma, small intestine and bone marrow tissue 10 min after TPP-IOA i.p. injection into animals (5 mg/kg body weight), using a standard Folch procedure for extraction of lipids^37. In one set of runs, intact TPP-IOA was assessed by SRM as described below. In an identical set of duplicate runs, hydrolyzed TPP-IOA (in the form of the TPP moiety, see below) was assessed by a different mass spectrometric method, MRM, as described below.
TPP-IOA (m/z 651) was assessed by SRM in a LCQ-Duo ion trap mass spectrometer (Thermo, Inc., Waltham, Mass.). Chromatography was performed on an Eclipse XDB reverse phase C18 column (4.6 mm×15 cm, Agilent Technologies, Santa Clara, Calif.) using an isocratic solvent system consisting of acetonitrile:water:triethylamine:acetic acid (450:50:2.5:2.5, v/v/v/v) and a flow rate of 0.4 ml/min. The transition measured was 651>303 (TPP-IOA to TPP-propyl moiety—water) within a 0.5 Da window. Instrument conditions were as follows: spray voltage, 4.5 kV, positive mode; sheath gas, 30; capillary temperature, 250° C.; tube lens, 20; capillary voltage, 26. The instrument was tuned for the appropriate parent ion and all parameters were optimized to maximize the transition during the SRM including tuning under appropriate flow conditions.

SMILES	inhibition of cyt c peroxidase compared with TPP-ISA (cyt c/TOCL complexes [1])	inhibition of peroxidase activity of cyt c/TOCL complexes (Amplex Red oxidation) (cyt c/TOCL complexes [1])	inhibition of peroxidase activity of cyt c/TOCL complexes (etoposide oxidation, EPR) (cyt c/TOCL complexes [2])	H2O2-dependent generation of protein-immobilized (tyrosyl) radicals (cyt c/TOCL complexes [3])	peroxidase activity of isolated mouse liver mitochondria (mouse liver mitochondria)	EPR signal of haem-nitrosylated cyt c/TOCL (cyt c/TOCL complexes [4])	protection against ActD-induced cell death (mouse embryonic cells)	also measured
CCCCCCCCCCCCC(CCCCC(=O)OCCC[P+](c1ccccc1)(c1ccccc1)c1ccccc1)n1ccnc1.[Br-] (racemic) [TPP-6-imidazole-stearic acid, (3-((6-(1H-imidazol-1-yl)octadecanoyl)oxy)propyl)triphenylphosphonium bromide]	significantly better inhibitors of cyt c peroxidase than TPP-ISA							
CCCCCCCCCCC(CCCCCCC(=O)OCCC[P+](c1ccccc1)(c1ccccc1)c1ccccc1)n1ccnc1.[Br-] (racemic) [TPP-8-imidazole-stearic acid, (3-((8-(1H-imidazol-1-yl)octadecanoyl)oxy)propyl)triphenylphosphonium bromide]	significantly better inhibitors of cyt c peroxidase than TPP-ISA							
CCCCCCC(C/C=C/CCCCCCCC(=O)O)n1ccnc1 (stereo not drawn) [IEOA, (E)-12-(1H-imidazol-1-ium-1-yl)octadec-9-enoic acid]		potent inhibitors	potent inhibitors	effectively quenched generation of Tyr. radicals	suppressed peroxidase activity in a concentration-dependent manner	concentration-dependent decrease of the EPR signal	exerted no protection against apoptosis; also recorded: no detectable protection	
CCCCCCC(C/C=C\CCCCCCCC(=O)O)n1ccnc1 (stereo not drawn) [IOA, 12-(Imidazol-1-yl)-(Z)-9-octadecaenoate]		potent inhibitors	potent inhibitors	effectively quenched generation of Tyr. radicals				EPR spectrum (axial haem coordination) of native ferri-cyt c on addition of compound (native ferri-cyt c): no change in the EPR spectrum
CCCCCCC(CCCCCCCCCCC(=O)O)n1ccnc1 (stereo not drawn) [ISA, 12-(1H-imidazol-1-yl)octadecanoic acid]		potent inhibitors	potent inhibitors		suppressed peroxidase activity in a concentration-dependent manner	concentration-dependent decrease of the EPR signal	exerted no protection against apoptosis; also recorded: no detectable protection	change of haem-iron coordination in cyt c (Met80 substituted by imidazole moiety) (cyt c/TOCL complex): able to change haem-iron coordination in cyt c
CCCCCCC(C/C=C\CCCCCCCC(=O)OCCC[P+](c1ccccc1)(c1ccccc1)c1ccccc1)n1ccnc1.[Br-] (stereo not drawn) [TPP-IOA, 9-(Z)-(3-(12-imidazol-1-yl)octadeca-9-enoyloxy)propyl)triphenylphosphonium bromide]								concentration at 10 min ([5]; bone marrow, read-out: TPP-IOA level in bone marrow): 0.2 ng/g; concentration at 10 min ([5]; plasma, read-out: TPP-IOA level in plasma): 54 ng/mL; concentration at 10 min ([5]; small intestine, read-out: TPP-IOA level in small intestine): 1.5 ng/g
